# Test results reported in patent US6852673B2, “Herbicidal pyridine compounds” (BASF Aktiengesellschaft, priority 1998, dated 2005).
# Tests used:
# Format in all cases: in vivo
# [1] = test system: Setaria viridis (SETVI); experiment: Post-emergence herbicidal evaluation, green foxtail; settings: rated 2 to 4 weeks after treatment
# How it was run: (§1)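 Emerged seedlings receive a water-diluted acetone formulation at about 0.03 to 0.4 kg per hectare per pot and are grown on in the greenhouse. Scoring after 2–4 weeks uses a 0 (untreated-like growth) to 9 (death) scale.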
# [2] = test system: Lamium purpureum (LAMPU); experiment: Post-emergence herbicidal evaluation, purple deadnettle; settings: rated 2 to 4 weeks after treatment
# How it was run: as §1
# [3] = test system: Triticum aestivum (TRZAW); experiment: Pre-emergence herbicidal evaluation, winter wheat
# How it was run: (§2)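 Seeds planted in potting soil, then pots sprayed pre-emergence with aqueous acetone solution of test compound at about 0.0125 to 0.4 kg/ha. Kept under standard greenhouse care; injury rated 2 to 4 weeks after treatment.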
# [4] = test system: Oryza sativum (ORYSA); experiment: Post-emergence herbicidal evaluation, rice; settings: rated 2 to 4 weeks after treatment
# How it was run: as §1
# [5] = test system: Matricaria inodora (MATIN); experiment: Pre-emergence herbicidal evaluation, mayweed
# How it was run: as §2
# [6] = test system: Galium aparine (GALAP); experiment: Pre-emergence herbicidal evaluation, cleaver
# How it was run: as §2
# [7] = test system: Ambrosia artemiisifolia (AMBEL); experiment: Post-emergence herbicidal evaluation, ragweed; settings: rated 2 to 4 weeks after treatment
# How it was run: as §1
# [8] = test system: Solanum nigrum (SOLNI); experiment: Post-emergence herbicidal evaluation, black nightshade; settings: rated 2 to 4 weeks after treatment
# How it was run: as §1
# [9] = test system: Ipomoea hederacea (IPOHE); experiment: Post-emergence herbicidal evaluation, morning glory; settings: rated 2 to 4 weeks after treatment
# How it was run: as §1
# [10] = test system: Glycine max (GLXMA); experiment: Pre-emergence herbicidal evaluation, soyabeans
# How it was run: as §2
# [11] = test system: Alopecurus myosuroides (ALOMY); experiment: Post-emergence herbicidal evaluation, black grass; settings: rated 2 to 4 weeks after treatment
# How it was run: as §1
# [12] = test system: Echinochloa grus galli (ECHCG); experiment: Post-emergence herbicidal evaluation, barnyard grass; settings: rated 2 to 4 weeks after treatment
# How it was run: as §1
# [13] = test system: Setaria viridis (SETVI); experiment: Pre-emergence herbicidal evaluation, green foxtail
# How it was run: as §2
# [14] = test system: Hordeum vulgare (HORVW); experiment: Post-emergence herbicidal evaluation, winter barley; settings: rated 2 to 4 weeks after treatment
# How it was run: as §1
# [15] = test system: Zea mays (ZEAMX); experiment: Post-emergence herbicidal evaluation, maize; settings: rated 2 to 4 weeks after treatment
# How it was run: as §1
# [16] = test system: Galium aparine (GALAP); experiment: Post-emergence herbicidal evaluation, cleaver; settings: rated 2 to 4 weeks after treatment
# How it was run: as §1
# [17] = test system: Oryza sativum (ORYSA); experiment: Pre-emergence herbicidal evaluation, rice
# How it was run: as §2
# [18] = test system: Alopecurus myosuroides (ALOMY); experiment: Pre-emergence herbicidal evaluation, black grass
# How it was run: as §2
# [19] = test system: Lamium purpureum (LAMPU); experiment: Pre-emergence herbicidal evaluation, purple deadnettle
# How it was run: as §2
# [20] = test system: Matricaria inodora (MATIN); experiment: Post-emergence herbicidal evaluation, mayweed; settings: rated 2 to 4 weeks after treatment
# How it was run: as §1
# [21] = test system: Abutilon theophrasti (ABUTH); experiment: Pre-emergence herbicidal evaluation, velvetleaf
# How it was run: as §2
# [22] = test system: Stellaria media (STEME); experiment: Pre-emergence herbicidal evaluation, chickweed
# How it was run: as §2
# [23] = test system: Abutilon theophrasti (ABUTH); experiment: Post-emergence herbicidal evaluation, velvetleaf; settings: rated 2 to 4 weeks after treatment
# How it was run: as §1
# [24] = test system: Ambrosia artemiisifolia (AMBEL); experiment: Pre-emergence herbicidal evaluation, ragweed
# How it was run: as §2
# [25] = test system: Solanum nigrum (SOLNI); experiment: Pre-emergence herbicidal evaluation, black nightshade
# How it was run: as §2
# [26] = test system: Triticum aestivum (TRZAW); experiment: Post-emergence herbicidal evaluation, winter wheat; settings: rated 2 to 4 weeks after treatment
# How it was run: as §1
compound,measurement,setting,value
"COc1cc(OCC(F)(F)C(F)F)nc(Oc2cc(C(F)(F)F)nn2C)c1 [Example 4, 2-(1-Methyl-3-trifluoromethylpyrazol-5-yloxy)-4-methoxy-6-(2,2,3,3-tetrafluoropropyloxy)pyridine]",SETVI rating,[1]; dose 0.03 kg/ha,6 (6 - Herbicidal effect)
same,SETVI rating,[1]; dose 0.1 kg/ha,8 (8 - Approaching complete kill)
same,SETVI rating,[1]; dose 0.4 kg/ha,9 (9 - Complete kill)
same,LAMPU rating,[2]; dose 0.03 kg/ha,7 (7 - Good herbicidal effect)
same,LAMPU rating,[2]; dose 0.4 kg/ha,8 (8 - Approaching complete kill)
same,TRZAW rating,[3]; dose 0.013 kg/ha,0 (0 - No effect)
same,TRZAW rating,[3]; dose 0.025 kg/ha,0 (0 - No effect)
same,TRZAW rating,[3]; dose 0.1 kg/ha,1 (1 - Trace effect)
same,TRZAW rating,[3]; dose 0.4 kg/ha,4 (4 - Injury)
same,ORYSA rating,[4]; dose 0.03 kg/ha,2 (2 - Slight effect)
same,ORYSA rating,[4]; dose 0.1 kg/ha,2 (2 - Slight effect)
same,ORYSA rating,[4]; dose 0.4 kg/ha,4 (4 - Injury)
same,MATIN rating,[5]; dose 0.013 kg/ha,8 (8 - Approaching complete kill)
same,MATIN rating,[5]; dose 0.025 kg/ha,8 (8 - Approaching complete kill)
same,MATIN rating,[5]; dose 0.1 kg/ha,9 (9 - Complete kill)
same,MATIN rating,[5]; dose 0.4 kg/ha,9 (9 - Complete kill)
same,GALAP rating,[6]; dose 0.013 kg/ha,1 (1 - Trace effect)
same,GALAP rating,[6]; dose 0.025 kg/ha,3 (3 - Moderate effect)
same,GALAP rating,[6]; dose 0.1 kg/ha,5 (5 - Definite injury)
same,GALAP rating,[6]; dose 0.4 kg/ha,8 (8 - Approaching complete kill)
same,AMBEL rating,[7]; dose 0.03 kg/ha,3 (3 - Moderate effect)
same,AMBEL rating,[7]; dose 0.1 kg/ha,6 (6 - Herbicidal effect)
same,AMBEL rating,[7]; dose 0.4 kg/ha,7 (7 - Good herbicidal effect)
same,SOLNI rating,[8]; dose 0.03 kg/ha,4 (4 - Injury)
same,SOLNI rating,[8]; dose 0.1 kg/ha,5 (5 - Definite injury)
same,SOLNI rating,[8]; dose 0.4 kg/ha,5 (5 - Definite injury)
same,IPOHE rating,[9]; dose 0.03 kg/ha,8 (8 - Approaching complete kill)
same,IPOHE rating,[9]; dose 0.1 kg/ha,9 (9 - Complete kill)
same,IPOHE rating,[9]; dose 0.4 kg/ha,9 (9 - Complete kill)
same,GLXMA rating,[10]; dose 0.013 kg/ha,1 (1 - Trace effect)
same,GLXMA rating,[10]; dose 0.025 kg/ha,4 (4 - Injury)
same,GLXMA rating,[10]; dose 0.1 kg/ha,6 (6 - Herbicidal effect)
same,GLXMA rating,[10]; dose 0.4 kg/ha,8 (8 - Approaching complete kill)
same,ALOMY rating,[11]; dose 0.03 kg/ha,3 (3 - Moderate effect)
same,ALOMY rating,[11]; dose 0.1 kg/ha,6 (6 - Herbicidal effect)
same,ALOMY rating,[11]; dose 0.4 kg/ha,8 (8 - Approaching complete kill)
same,ECHCG rating,[12]; dose 0.03 kg/ha,6 (6 - Herbicidal effect)
same,ECHCG rating,[12]; dose 0.1 kg/ha,8 (8 - Approaching complete kill)
same,ECHCG rating,[12]; dose 0.4 kg/ha,9 (9 - Complete kill)
same,SETVI rating,[13]; dose 0.013 kg/ha,5 (5 - Definite injury)
same,SETVI rating,[13]; dose 0.025 kg/ha,8 (8 - Approaching complete kill)
same,SETVI rating,[13]; dose 0.1 kg/ha,9 (9 - Complete kill)
same,SETVI rating,[13]; dose 0.4 kg/ha,9 (9 - Complete kill)
same,HORVW rating,[14]; dose 0.03 kg/ha,3 (3 - Moderate effect)
same,HORVW rating,[14]; dose 0.1 kg/ha,3 (3 - Moderate effect)
same,HORVW rating,[14]; dose 0.4 kg/ha,5 (5 - Definite injury)
same,ZEAMX rating,[15]; dose 0.03 kg/ha,2 (2 - Slight effect)
same,ZEAMX rating,[15]; dose 0.1 kg/ha,3 (3 - Moderate effect)
same,ZEAMX rating,[15]; dose 0.4 kg/ha,5 (5 - Definite injury)
same,GALAP rating,[16]; dose 0.03 kg/ha,6 (6 - Herbicidal effect)
same,GALAP rating,[16]; dose 0.1 kg/ha,9 (9 - Complete kill)
same,GALAP rating,[16]; dose 0.4 kg/ha,9 (9 - Complete kill)
same,ORYSA rating,[17]; dose 0.013 kg/ha,1 (1 - Trace effect)
same,ORYSA rating,[17]; dose 0.025 kg/ha,1 (1 - Trace effect)
same,ORYSA rating,[17]; dose 0.1 kg/ha,2 (2 - Slight effect)
same,ORYSA rating,[17]; dose 0.4 kg/ha,3 (3 - Moderate effect)
same,ALOMY rating,[18]; dose 0.025 kg/ha,3 (3 - Moderate effect)
same,ALOMY rating,[18]; dose 0.1 kg/ha,8 (8 - Approaching complete kill)
same,ALOMY rating,[18]; dose 0.4 kg/ha,8 (8 - Approaching complete kill)
same,LAMPU rating,[19]; dose 0.013 kg/ha,8 (8 - Approaching complete kill)
same,LAMPU rating,[19]; dose 0.025 kg/ha,8 (8 - Approaching complete kill)
same,LAMPU rating,[19]; dose 0.1 kg/ha,9 (9 - Complete kill)
same,LAMPU rating,[19]; dose 0.4 kg/ha,9 (9 - Complete kill)
same,MATIN rating,[20]; dose 0.03 kg/ha,5 (5 - Definite injury)
same,MATIN rating,[20]; dose 0.1 kg/ha,7 (7 - Good herbicidal effect)
same,MATIN rating,[20]; dose 0.4 kg/ha,7 (7 - Good herbicidal effect)
same,ABUTH rating,[21]; dose 0.013 kg/ha,3 (3 - Moderate effect)
same,ABUTH rating,[21]; dose 0.025 kg/ha,5 (5 - Definite injury)
same,ABUTH rating,[21]; dose 0.1 kg/ha,7 (7 - Good herbicidal effect)
same,ABUTH rating,[21]; dose 0.4 kg/ha,9 (9 - Complete kill)
same,STEME rating,[22]; dose 0.013 kg/ha,4 (4 - Injury)
same,STEME rating,[22]; dose 0.025 kg/ha,6 (6 - Herbicidal effect)
same,STEME rating,[22]; dose 0.1 kg/ha,9 (9 - Complete kill)
same,STEME rating,[22]; dose 0.4 kg/ha,9 (9 - Complete kill)
same,ABUTH rating,[23]; dose 0.03 kg/ha,4 (4 - Injury)
same,ABUTH rating,[23]; dose 0.1 kg/ha,6 (6 - Herbicidal effect)
same,ABUTH rating,[23]; dose 0.4 kg/ha,6 (6 - Herbicidal effect)
same,AMBEL rating,[24]; dose 0.013 kg/ha,4 (4 - Injury)
same,AMBEL rating,[24]; dose 0.025 kg/ha,9 (9 - Complete kill)
same,AMBEL rating,[24]; dose 0.1 kg/ha,9 (9 - Complete kill)
same,AMBEL rating,[24]; dose 0.4 kg/ha,9 (9 - Complete kill)
same,SOLNI rating,[25]; dose 0.013 kg/ha,6 (6 - Herbicidal effect)
same,SOLNI rating,[25]; dose 0.025 kg/ha,8 (8 - Approaching complete kill)
same,SOLNI rating,[25]; dose 0.1 kg/ha,8 (8 - Approaching complete kill)
same,SOLNI rating,[25]; dose 0.4 kg/ha,8 (8 - Approaching complete kill)
same,TRZAW rating,[26]; dose 0.03 kg/ha,2 (2 - Slight effect)
same,TRZAW rating,[26]; dose 0.1 kg/ha,3 (3 - Moderate effect)
same,TRZAW rating,[26]; dose 0.4 kg/ha,5 (5 - Definite injury)
